{"source": "patent US20210008145A1", "about": "“EDICINE COMPOSITION FOR TREATMENT OF HUMAN PAPILLOMAVIRUS INFECTION AND PREPARATION METHOD THEREOF” (Jiangsu Zhengyang Pharmaceutical Co., Ltd., priority 2018, published 2021)", "system": "HeLa cells", "experiment": "MTT assay, inhibition of HeLa cell proliferation", "type": "cell-based", "conditions": "Homo sapiens, crude drug 25 g/L (cidofovir 10 μmol/mL), read-out: inhibition percentage on HeLa cell proliferation", "description": "The percentage inhibition on HeLa cell proliferation for each compound prepared in Examples 1-7 was determined by MTT assay (MTT Cell Proliferation and Cytotoxicity Assay Kit). HeLa cells was cultured in a 96-well plate for 6.0×10^3 cells per well, and allowed to adhere to the surface of the 96-well plate. Serum-free medium was added to each well of control group. Cidofovir was diluted in purified water such that the final concentration of cidofovir in the assay was 10 μmol/mL, and the resulting solution was added to each well of positive control group. Each compound of Examples 1-7 was diluted in water to a crude drug concentration of 25 g/L, and the resulting solution was added to the 96-well plate for a final volume of 200 μL per well. 200 μL of complete medium was only added to each well of blank control group. Each experimental group was done in 6 well replicates. After incubation of 24, 48, and 72 hours, 20 μL of 5 g/L MTT was added to each well and the plates were further incubated at 37° C. for 4 hours. Following discarding the supernatant, 200 μL of dimethyl sulfoxide (DMSO) was added to each well and the plates were shaken sufficiently as so to dissolve the crystals. Absorbance (A) of the wells at 490 nm was measured. These measurements then are used to calculate the percentage inhibition of cell growth: percentage inhibition=1−[…]×100%, where TA refers to the average absorbance of treatment group, and CA refers to the average absorbance of control group.", "note": "Like-named read-outs stand apart in the source and are kept apart here.", "data": [{"smiles": "Nc1ccn(C[C@@H](CO)OCP(=O)(O)O)c(=O)n1", "note": "[Cidofovir]", "values": [{"measurement": "inhibition at 25000 µg/mL", "setting": "24 hours", "value": "32.2 ± 2.08", "unit": "%"}, {"measurement": "inhibition at 25000 µg/mL", "setting": "48 hours", "value": "48.6 ± 3.5", "unit": "%"}, {"measurement": "inhibition at 25000 µg/mL", "setting": "72 hours", "value": "58.1 ± 3.21", "unit": "%"}]}]}
